Measured values reported in PubChem BioAssay AID1745844 (Carcinogenic Potency Database (CPDB), 2022).

Tested on: rodent lifetime carcinogenesis bioassay, tumor incidence TD50
Experiment: carcinogenic potency in animals, long-term in vivo studies, CPDB compilation (AID 1745844)
Settings: in feed

`Nc1c(Br)cc(Br)c2c1C(=O)c1ccccc1C2=O` gave a TD50 (mouse, strain B6C3F1, females, site: any site (literature study), lesion: several types, types named in the paper, dosed 104 weeks, study length 104 weeks) of 1030 mg/kg/day, a TD50 (mouse, strain B6C3F1, females, site: forestomach + liver + lung, lesion: squamous-cell carcinoma + squamous-cell papilloma + hepatocellular adenoma + hepatocellular carcinoma + alveolar/bronchiolar ade, dosed 104 weeks, study length 104 weeks) of 546 mg/kg/day and a TD50 (mouse, strain B6C3F1, females, site: forestomach, lesion: squamous-cell carcinoma + squamous-cell papilloma, dosed 104 weeks, study length 104 weeks) of 1230 mg/kg/day. It also gave a TD50 (mouse, strain B6C3F1, females, site: forestomach, lesion: squamous-cell carcinoma, dosed 104 weeks, study length 104 weeks) of 3930 mg/kg/day, a TD50 (mouse, strain B6C3F1, females, site: forestomach, lesion: squamous-cell papilloma, dosed 104 weeks, study length 104 weeks) of 1760 mg/kg/day and a TD50 (mouse, strain B6C3F1, females, site: liver, lesion: hepatocellular adenoma + hepatoblastoma + hepatocellular carcinoma, dosed 104 weeks, study length 104 weeks) of 490 mg/kg/day. The TD50 (mouse, strain B6C3F1, females, site: liver, lesion: hepatocellular adenoma + hepatocellular carcinoma, dosed 104 weeks, study length 104 weeks) was 490 mg/kg/day, the TD50 (mouse, strain B6C3F1, females, site: liver, lesion: hepatocellular adenoma, dosed 104 weeks, study length 104 weeks) was 515 mg/kg/day and the TD50 (mouse, strain B6C3F1, females, site: liver, lesion: hepatocellular carcinoma, dosed 104 weeks, study length 104 weeks) was 1530 mg/kg/day. For the same molecule, the TD50 (mouse, strain B6C3F1, females, site: lung, lesion: alveolar/bronchiolar adenoma + alveolar/bronchiolar carcinoma, dosed 104 weeks, study length 104 weeks) was 1990 mg/kg/day, the TD50 (mouse, strain B6C3F1, females, site: lung, lesion: alveolar/bronchiolar adenoma, dosed 104 weeks, study length 104 weeks) was 1990 mg/kg/day and the TD50 (mouse, strain B6C3F1, females, site: pituitary gland, lesion: pars distalis adenoma, dosed 104 weeks, study length 104 weeks) was 3750 mg/kg/day. The TD50 (mouse, strain B6C3F1, females, site: uterus, lesion: endometrial stromal polyp + endometrial stromal sarcoma, dosed 104 weeks, study length 104 weeks) was 6820 mg/kg/day, the TD50 (mouse, strain B6C3F1, males, site: any site (literature study), lesion: several types, types named in the paper, dosed 103 weeks, study length 104 weeks) was 566 mg/kg/day and the TD50 (mouse, strain B6C3F1, males, site: forestomach + liver + lung, lesion: squamous-cell carcinoma + squamous-cell papilloma + hepatocellular adenoma + hepatoblastoma + hepatocellular carcinoma + alveolar/, dosed 103 weeks, study length 104 weeks) was 465 mg/kg/day. The TD50 (mouse, strain B6C3F1, males, site: forestomach, lesion: squamous-cell carcinoma + squamous-cell papilloma, dosed 103 weeks, study length 104 weeks) was 1130 mg/kg/day, the TD50 (mouse, strain B6C3F1, males, site: forestomach, lesion: squamous-cell carcinoma, dosed 103 weeks, study length 104 weeks) was 2730 mg/kg/day and the TD50 (mouse, strain B6C3F1, males, site: forestomach, lesion: squamous-cell papilloma, dosed 103 weeks, study length 104 weeks) was 1680 mg/kg/day. It also gave a TD50 (mouse, strain B6C3F1, males, site: liver, lesion: hepatoblastoma + hepatocellular carcinoma, dosed 103 weeks, study length 104 weeks) of 1870 mg/kg/day, a TD50 (mouse, strain B6C3F1, males, site: liver, lesion: hepatoblastoma, dosed 103 weeks, study length 104 weeks) of 9250 mg/kg/day and a TD50 (mouse, strain B6C3F1, males, site: liver, lesion: hepatocellular adenoma + hepatoblastoma + hepatocellular carcinoma, dosed 103 weeks, study length 104 weeks) of 467 mg/kg/day. The TD50 (mouse, strain B6C3F1, males, site: liver, lesion: hepatocellular adenoma + hepatocellular carcinoma, dosed 103 weeks, study length 104 weeks) was 467 mg/kg/day, the TD50 (mouse, strain B6C3F1, males, site: liver, lesion: hepatocellular adenoma, dosed 103 weeks, study length 104 weeks) was 464 mg/kg/day and the TD50 (mouse, strain B6C3F1, males, site: liver, lesion: hepatocellular carcinoma, dosed 103 weeks, study length 104 weeks) was 2240 mg/kg/day. The TD50 (mouse, strain B6C3F1, males, site: lung, lesion: alveolar/bronchiolar adenoma + alveolar/bronchiolar carcinoma, dosed 103 weeks, study length 104 weeks) was 817 mg/kg/day, the TD50 (mouse, strain B6C3F1, males, site: lung, lesion: alveolar/bronchiolar adenoma, dosed 103 weeks, study length 104 weeks) was 831 mg/kg/day and the TD50 (rat, strain Fischer 344, females, site: any site (literature study), lesion: several types, types named in the paper, dosed 40 weeks, study length 66 weeks) was 135 mg/kg/day. It also gave a TD50 (rat, strain Fischer 344, females, site: any site (literature study), lesion: several types, types named in the paper, dosed 66 weeks, study length 66 weeks) of 147 mg/kg/day, a TD50 (rat, strain Fischer 344, females, site: any site (literature study), lesion: several types, types named in the paper, dosed 103 weeks, study length 104 weeks) of 160 mg/kg/day and a TD50 (rat, strain Fischer 344, females, site: cecum + colon + kidney + liver + rectum + urinary bladder, lesion: polypoid adenoma + adenocarcinoma + tubule adenoma + tubule carcinoma + hepatocholangiocarcinoma + hepatocellular adenoma + hepatoce, dosed 103 weeks, study length 104 weeks) of 31 mg/kg/day. The TD50 (rat, strain Fischer 344, females, site: cecum + colon + rectum, lesion: polypoid adenoma, dosed 40 weeks, study length 66 weeks) was 217 mg/kg/day, the TD50 (rat, strain Fischer 344, females, site: cecum + colon + rectum, lesion: polypoid adenoma, dosed 66 weeks, study length 66 weeks) was 1270 mg/kg/day and the TD50 (rat, strain Fischer 344, females, site: cecum + colon + rectum, lesion: polypoid adenoma, dosed 103 weeks, study length 104 weeks) was 72.9 mg/kg/day. For the same molecule, the TD50 (rat, strain Fischer 344, females, site: colon + rectum, lesion: adenocarcinoma, dosed 103 weeks, study length 104 weeks) was 414 mg/kg/day, the TD50 (rat, strain Fischer 344, females, site: kidney, lesion: tubule adenoma + tubule carcinoma, dosed 40 weeks, study length 66 weeks) was 418 mg/kg/day and the TD50 (rat, strain Fischer 344, females, site: kidney, lesion: tubule adenoma + tubule carcinoma, dosed 66 weeks, study length 66 weeks) was 1520 mg/kg/day. For the same molecule, the TD50 (rat, strain Fischer 344, females, site: kidney, lesion: tubule adenoma + tubule carcinoma, dosed 103 weeks, study length 104 weeks) was 388 mg/kg/day, the TD50 (rat, strain Fischer 344, females, site: kidney, lesion: tubule adenoma, dosed 40 weeks, study length 66 weeks) was 418 mg/kg/day and the TD50 (rat, strain Fischer 344, females, site: kidney, lesion: tubule adenoma, dosed 66 weeks, study length 66 weeks) was 1520 mg/kg/day. For the same molecule, the TD50 (rat, strain Fischer 344, females, site: kidney, lesion: tubule adenoma, dosed 103 weeks, study length 104 weeks) was 388 mg/kg/day, the TD50 (rat, strain Fischer 344, females, site: liver, lesion: hepatocellular adenoma + hepatoblastoma + hepatocellular carcinoma, dosed 40 weeks, study length 66 weeks) was 121 mg/kg/day and the TD50 (rat, strain Fischer 344, females, site: liver, lesion: hepatocellular adenoma + hepatoblastoma + hepatocellular carcinoma, dosed 66 weeks, study length 66 weeks) was 121 mg/kg/day. It also gave a TD50 (rat, strain Fischer 344, females, site: liver, lesion: hepatocellular adenoma + hepatoblastoma + hepatocellular carcinoma, dosed 103 weeks, study length 104 weeks) of 40.1 mg/kg/day, a TD50 (rat, strain Fischer 344, females, site: liver, lesion: hepatocellular adenoma + hepatocellular carcinoma, dosed 40 weeks, study length 66 weeks) of 121 mg/kg/day and a TD50 (rat, strain Fischer 344, females, site: liver, lesion: hepatocellular adenoma + hepatocellular carcinoma, dosed 66 weeks, study length 66 weeks) of 121 mg/kg/day. It also gave a TD50 (rat, strain Fischer 344, females, site: liver, lesion: hepatocellular adenoma + hepatocellular carcinoma, dosed 103 weeks, study length 104 weeks) of 40.1 mg/kg/day, a TD50 (rat, strain Fischer 344, females, site: liver, lesion: hepatocellular adenoma, dosed 40 weeks, study length 66 weeks) of 191 mg/kg/day and a TD50 (rat, strain Fischer 344, females, site: liver, lesion: hepatocellular adenoma, dosed 66 weeks, study length 66 weeks) of 219 mg/kg/day. It also gave a TD50 (rat, strain Fischer 344, females, site: liver, lesion: hepatocellular adenoma, dosed 103 weeks, study length 104 weeks) of 53.9 mg/kg/day, a TD50 (rat, strain Fischer 344, females, site: liver, lesion: hepatocellular carcinoma, dosed 40 weeks, study length 66 weeks) of 167 mg/kg/day and a TD50 (rat, strain Fischer 344, females, site: liver, lesion: hepatocellular carcinoma, dosed 66 weeks, study length 66 weeks) of 124 mg/kg/day. It also gave a TD50 (rat, strain Fischer 344, females, site: liver, lesion: hepatocellular carcinoma, dosed 103 weeks, study length 104 weeks) of 88.4 mg/kg/day.
